Laboratory results as given in ChEMBL document CHEMBL4725442, “Exception That Proves the Rule: Investigation of Privileged Stereochemistry in Designing Dopamine DR Bitopic Agonists” (ACS Med Chem Lett, 2020).

Assays:
Type in all cases: cell-based
D(1A) dopamine receptor [1] = biological target: T1, D(1A) dopamine receptor (Homo sapiens, UniProt P21728); assay: Displacement of [3H]-SCH23390 from human D1 receptor expressed in HEK293 cells at 100 uM after 60 mins by microbeta counting based assay relative to control
D(1A) dopamine receptor [2] = biological target: T1, D(1A) dopamine receptor; assay: Displacement of [3H]-SCH23390 from human D1 receptor expressed in HEK293 cells after 60 mins by microbeta counting based assay
Mu-type opioid receptor [3] = biological target: T2, Mu-type opioid receptor (Homo sapiens, UniProt P35372); assay: Displacement of [3H]-DAMGO from human MOR expressed in HEK293 cells after 60 mins by microbeta counting based assay
Mu-type opioid receptor [4] = biological target: T2, Mu-type opioid receptor; assay: Displacement of [3H]-DAMGO from human MOR expressed in HEK293 cells at 100 uM after 60 mins by microbeta counting based assay relative to control
D(2) dopamine receptor = D(2) dopamine receptor (Homo sapiens, UniProt P14416); assay: Displacement of [3H]-(R)-(+)-7-OH-DPAT from human D2L receptor expressed in HEK293 cells after 90 mins by microbeta counting based assay
D(3) dopamine receptor = D(3) dopamine receptor (Homo sapiens, UniProt P35462); assay: Displacement of [3H]-(R)-(+)-7-OH-DPAT from human D3 receptor expressed in HEK293 cells after 90 mins by microbeta counting based assay
Chain of D(3) dopamine receptor (P35462 whole entry): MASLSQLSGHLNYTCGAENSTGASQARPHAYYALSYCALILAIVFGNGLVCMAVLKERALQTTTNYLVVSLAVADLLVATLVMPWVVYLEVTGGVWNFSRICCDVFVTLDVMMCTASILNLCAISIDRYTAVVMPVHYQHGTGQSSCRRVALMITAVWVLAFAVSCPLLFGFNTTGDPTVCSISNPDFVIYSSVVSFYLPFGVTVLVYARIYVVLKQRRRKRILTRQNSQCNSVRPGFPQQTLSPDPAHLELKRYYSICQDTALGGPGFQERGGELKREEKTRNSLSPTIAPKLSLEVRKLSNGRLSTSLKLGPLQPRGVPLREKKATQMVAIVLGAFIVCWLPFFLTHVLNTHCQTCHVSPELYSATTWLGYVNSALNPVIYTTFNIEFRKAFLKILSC

T1 sequence (P21728 whole entry): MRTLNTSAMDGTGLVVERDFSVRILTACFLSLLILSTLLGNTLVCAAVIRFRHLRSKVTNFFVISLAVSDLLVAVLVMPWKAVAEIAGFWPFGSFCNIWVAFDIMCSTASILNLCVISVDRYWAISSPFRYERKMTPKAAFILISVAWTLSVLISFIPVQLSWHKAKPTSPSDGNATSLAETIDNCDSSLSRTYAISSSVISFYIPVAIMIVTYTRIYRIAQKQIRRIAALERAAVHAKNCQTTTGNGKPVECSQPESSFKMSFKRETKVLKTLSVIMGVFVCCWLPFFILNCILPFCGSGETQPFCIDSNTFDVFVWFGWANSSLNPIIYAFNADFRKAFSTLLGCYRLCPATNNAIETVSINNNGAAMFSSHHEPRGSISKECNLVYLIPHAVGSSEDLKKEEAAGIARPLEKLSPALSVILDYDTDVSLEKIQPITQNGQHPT
T2 sequence (P35372 whole entry): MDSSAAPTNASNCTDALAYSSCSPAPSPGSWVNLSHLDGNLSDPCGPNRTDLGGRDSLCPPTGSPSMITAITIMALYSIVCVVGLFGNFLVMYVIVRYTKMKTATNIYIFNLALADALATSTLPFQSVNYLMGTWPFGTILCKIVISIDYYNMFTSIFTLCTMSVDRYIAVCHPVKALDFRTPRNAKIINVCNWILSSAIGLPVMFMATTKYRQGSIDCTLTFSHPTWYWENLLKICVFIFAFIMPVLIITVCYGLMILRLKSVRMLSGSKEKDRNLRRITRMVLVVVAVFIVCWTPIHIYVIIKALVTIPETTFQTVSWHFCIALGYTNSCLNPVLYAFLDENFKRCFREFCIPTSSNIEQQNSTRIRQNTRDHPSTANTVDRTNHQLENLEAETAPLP
Chain of D(2) dopamine receptor (P14416 whole entry): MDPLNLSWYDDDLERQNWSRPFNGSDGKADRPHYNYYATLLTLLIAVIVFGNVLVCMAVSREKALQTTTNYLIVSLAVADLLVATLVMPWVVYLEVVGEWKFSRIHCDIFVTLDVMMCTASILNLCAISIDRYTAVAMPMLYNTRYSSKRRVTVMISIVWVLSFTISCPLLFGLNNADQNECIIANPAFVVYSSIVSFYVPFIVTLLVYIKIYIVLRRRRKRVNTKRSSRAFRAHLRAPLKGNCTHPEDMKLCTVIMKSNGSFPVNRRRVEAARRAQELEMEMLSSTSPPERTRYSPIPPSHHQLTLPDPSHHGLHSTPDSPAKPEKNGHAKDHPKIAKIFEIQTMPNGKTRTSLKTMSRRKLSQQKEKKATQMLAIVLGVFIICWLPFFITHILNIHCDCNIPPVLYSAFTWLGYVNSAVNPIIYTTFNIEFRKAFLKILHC

| SMILES | inhibition (D(1A) dopamine receptor [1]) [%] | Ki (D(1A) dopamine receptor [2]) [µM] | Ki (Mu-type opioid receptor [3]) [µM] | inhibition (Mu-type opioid receptor [4]) [%] | Ki (D(2) dopamine receptor) [µM] | Ki (D(3) dopamine receptor) [µM] |
| --- | --- | --- | --- | --- | --- | --- |
| CCCN1CCO[C@@H]2c3cc(O)ccc3OC[C@H]21 | < 50 |  |  |  |  |  |
| CCCN1CCO[C@H]2c3cc(O)ccc3OC[C@@H]21 | < 50 |  |  |  |  |  |
| CCCN1CC(c2ccc(N)nc2)OC[C@@H]1C (mixture of isomers) | < 50 | > 100 | > 100 | < 50 |  |  |
| O=C(NCCCCN1CCO[C@H]2c3cc(O)ccc3OC[C@@H]21)c1cc2ccccc2[nH]1 (relative stereo) | < 50 | > 100 | 12.4 |  | 5.88 | 5.54 |
| O=C(NCCCCN1CCO[C@@H]2c3cc(O)ccc3OC[C@@H]21)c1cc2ccccc2[nH]1 (relative stereo) | < 50 | > 100 | 12.3 |  | 9.42 | 13.8 |
| C[C@H]1CO[C@@H](c2ccc(N)nc2)CN1CC[C@H]1CC[C@H](NC(=O)c2cc3ccccc3[nH]2)CC1 (relative stereo) | < 50 | > 100 | 21.9 |  |  |  |
| C[C@H]1CO[C@@H](c2ccc(N)nc2)CN1CC(O)CCNC(=O)c1cc2ccccc2[nH]1 (stereo partly specified) | < 50 | > 100 |  |  |  |  |
